Where “and” joins values, the source holds several entries; their conditions need not be identical. Equal values may be shown once. Inconclusive results and toxic doses are left out. No stated cut-off is given here; in the data, active means T/C of 150% or more; inactive means T/C below 125%.
Tested on: L1210 leukemia ip in BDF1 mice, survival T/C
Assay: NCI In Vivo Anticancer Drug Screen. Data for tumor model L1210 Leukemia (intraperitoneal) in B6D2F1 (BDF1) mice
Conditions: endpoint: mean survival time, higher = longer survival
Procedure, shortened: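 Antitumor effect is assessed in tumor-bearing animals. Survival in the compound arm is compared with a vehicle-dosed control arm and expressed as their quotient.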

[1] = dose: 100.0 mg/kg/injection, schedule: Q01DX009 (ip), vehicle: Klucel (hydroxypropylcellulose) (HPC)
[2] = dose: 200.0 mg/kg/injection, schedule: Q01DX009 (ip), vehicle: Klucel (hydroxypropylcellulose) (HPC)
[3] = dose: 400.0 mg/kg/injection, schedule: Q01DX009 (ip), vehicle: Klucel (hydroxypropylcellulose) (HPC)
[4] = dose: 50.0 mg/kg/injection, schedule: Q01DX009 (ip), vehicle: Klucel (hydroxypropylcellulose) (HPC)
[5] = dose: 100.0 mg/kg/injection, schedule: Q04DX003 (ip), vehicle: Klucel (hydroxypropylcellulose) (HPC)
[6] = dose: 200.0 mg/kg/injection, schedule: Q04DX003 (ip), vehicle: Klucel (hydroxypropylcellulose) (HPC)
[7] = dose: 400.0 mg/kg/injection, schedule: Q04DX003 (ip), vehicle: Klucel (hydroxypropylcellulose) (HPC)
[8] = dose: 100.0 mg/kg/injection, schedule: Q04DX002 (ip), vehicle: Klucel (hydroxypropylcellulose) (HPC)
[9] = dose: 200.0 mg/kg/injection, schedule: Q04DX002 (ip), vehicle: Klucel (hydroxypropylcellulose) (HPC)
[10] = dose: 100.0 mg/kg/injection, schedule: Q01DX001 (ip), vehicle: other
[11] = dose: 200.0 mg/kg/injection, schedule: Q01DX001 (ip), vehicle: other
[12] = dose: 400.0 mg/kg/injection, schedule: Q01DX001 (ip), vehicle: other
[13] = dose: 100.0 mg/kg/injection, schedule: Q04DX003 (ip), vehicle: saline with Tween-80
[14] = dose: 200.0 mg/kg/injection, schedule: Q04DX003 (ip), vehicle: saline with Tween-80
[15] = dose: 400.0 mg/kg/injection, schedule: Q04DX003 (ip), vehicle: saline with Tween-80
[16] = dose: 100.0 mg/kg/injection, schedule: Q01DX001 (ip), vehicle: carboxymethylcellulose (CMC)
[17] = dose: 200.0 mg/kg/injection, schedule: Q01DX001 (ip), vehicle: carboxymethylcellulose (CMC)

Measured: T/C

CC(=O)Nc1cc(Cl)c(Nc2cc(S(=O)(=O)O)c(N)c3c2C(=O)c2ccccc2C3=O)c(Cl)c1
inactive: dose: 75.0 mg/kg/injection, schedule: Q01DX001 (ip), vehicle: saline 96 % of control | dose: 150.0 mg/kg/injection, schedule: Q01DX001 (ip), vehicle: saline 88 % of control

CC1=C(Cl)C(=N\S(=O)(=O)c2ccccc2)/c2ccccc2/C1=N/S(=O)(=O)c1ccccc1
inactive: dose: 100.0 mg/kg/injection, schedule: Q01DX001 (ip), vehicle: saline sonified 101 % of control | dose: 200.0 mg/kg/injection, schedule: Q01DX001 (ip), vehicle: saline sonified 100 % of control | dose: 400.0 mg/kg/injection, schedule: Q01DX001 (ip), vehicle: saline sonified 102 % of control

Cc1ccc([N+](=O)[O-])cc1NC(=O)Nc1nccs1
inactive: [1] 104 % of control | [2] 101 % of control | [3] 102 % of control

O=C(O)COc1ccc(Cl)cc1CC(Cl)CCl (stereo unspecified)
inactive: dose: 25.0 mg/kg/injection, schedule: Q01DX009 (ip), vehicle: Klucel (hydroxypropylcellulose) (HPC) 97 % of control | [4] 119 % of control | [1] 97 % of control and 100 % of control

CC(C)(C)c1ccc(SSc2ccc(C(C)(C)C)cc2)cc1
inactive: [4] 94 % of control | [1] 94 % of control | [5] 94 % of control | [2] 98 % of control | [6] 91 % of control | [3] 96 % of control | [7] 92 % of control

COC(=O)[c-]1[c-][c-][c-][c-]1.COC(=O)[c-]1[c-][c-][c-][c-]1.[Fe]
inactive: dose: 12.5 mg/kg/injection, schedule: Q04DX003 (ip), vehicle: Klucel (hydroxypropylcellulose) (HPC) 94 % of control | dose: 25.0 mg/kg/injection, schedule: Q04DX003 (ip), vehicle: Klucel (hydroxypropylcellulose) (HPC) 90 % of control | dose: 50.0 mg/kg/injection, schedule: Q04DX003 (ip), vehicle: Klucel (hydroxypropylcellulose) (HPC) 90 % of control | dose: 75.0 mg/kg/injection, schedule: Q01DX009 (ip), vehicle: Klucel (hydroxypropylcellulose) (HPC) 103 % of control | dose: 115.0 mg/kg/injection, schedule: Q01DX009 (ip), vehicle: Klucel (hydroxypropylcellulose) (HPC) 93 % of control

CCOC(=O)c1ncn(-c2ccccc2)c1C(=O)OCC
inactive: dose: 100.0 mg/kg/injection, schedule: Q04DX002 (ip), vehicle: carboxymethylcellulose (CMC) 100 % of control | dose: 100.0 mg/kg/injection, schedule: Q04DX003 (ip), vehicle: carboxymethylcellulose (CMC) 96 % of control and 100 % of control | dose: 200.0 mg/kg/injection, schedule: Q04DX002 (ip), vehicle: carboxymethylcellulose (CMC) 97 % of control and 104 % of control | dose: 200.0 mg/kg/injection, schedule: Q04DX003 (ip), vehicle: carboxymethylcellulose (CMC) 96 % of control and 101 % of control | dose: 400.0 mg/kg/injection, schedule: Q04DX002 (ip), vehicle: carboxymethylcellulose (CMC) 94 % of control and 86 % of control | dose: 400.0 mg/kg/injection, schedule: Q04DX003 (ip), vehicle: carboxymethylcellulose (CMC) 94 % of control and 92 % of control

CN1C(c2ccccc2)=CN(Cc2ccccc2)C=C1c1ccccc1
inactive: dose: 50.0 mg/kg/injection, schedule: Q04DX002 (ip), vehicle: Klucel (hydroxypropylcellulose) (HPC) 103 % of control | [8] 100 % of control | [9] 97 % of control

CC(C)c1ccc(/C=N\[N+](C)(C)C)cc1
inactive: dose: 100.0 mg/kg/injection, schedule: Q04DX003 (ip), vehicle: saline 101 % of control | dose: 200.0 mg/kg/injection, schedule: Q04DX003 (ip), vehicle: saline 95 % of control

Oc1cc(Cl)c(Cl)cc1Cl.[Cu+2]
inactive: dose: 12.5 mg/kg/injection, schedule: Q04DX003 (ip), vehicle: gum acacia 92 % of control | dose: 25.0 mg/kg/injection, schedule: Q04DX003 (ip), vehicle: gum acacia 93 % of control

NNS(=O)(=O)c1ccc(OCC(=O)O)cc1
inactive: [1] 98 % of control | [5] 102 % of control | [2] 94 % of control | [6] 98 % of control | [3] 94 % of control | [7] 98 % of control

CCOC(=O)N1CC2CCc3c(ccc4ccccc34)N2C1=O (stereo unspecified)
inactive: [10] 97 % of control | [11] 92 % of control | [12] 95 % of control

CCC(C(=O)c1ccc(F)cc1)C(O)(C(F)(F)F)C(F)(F)F (stereo unspecified)
inactive: [13] 104 % of control | [14] 103 % of control | [15] 101 % of control

N/N=C(\c1ccccc1)c1ccncc1
inactive: dose: 44.0 mg/kg/injection, schedule: Q01DX Z (ip), vehicle: methylcellulose (MC) 106 % of control | dose: 66.0 mg/kg/injection, schedule: Q01DX Z (ip), vehicle: methylcellulose (MC) 90 % of control | dose: 100.0 mg/kg/injection, schedule: Q01DX Z (ip), vehicle: methylcellulose (MC) 87 % of control

CCOP(=O)(Nc1ccc2c(c1)Cc1cc(Cl)ccc1-2)OCC
inactive: dose: 50.0 mg/kg/injection, schedule: Q01DX001 (ip), vehicle: carboxymethylcellulose (CMC) 97 % of control | [16] 105 % of control | [17] 97 % of control | dose: 400.0 mg/kg/injection, schedule: Q01DX001 (ip), vehicle: carboxymethylcellulose (CMC) 92 % of control

Cc1ccc(C(=NN=C(N)N)c2ccc(C)cc2)cc1
inactive: dose: 3.75 mg/kg/injection, schedule: Q01DX Z (ip), vehicle: saline 101 % of control | dose: 7.5 mg/kg/injection, schedule: Q01DX Z (ip), vehicle: saline 95 % of control | dose: 7.5 mg/kg/injection, schedule: Q01DX Z (oral), vehicle: saline 98 % of control | dose: 15.0 mg/kg/injection, schedule: Q01DX Z (ip), vehicle: saline 93 % of control and 94 % of control | dose: 15.0 mg/kg/injection, schedule: Q01DX Z (oral), vehicle: saline 96 % of control | dose: 30.0 mg/kg/injection, schedule: Q01DX Z (ip), vehicle: saline 104 % of control | dose: 30.0 mg/kg/injection, schedule: Q01DX Z (oral), vehicle: saline 101 % of control | dose: 60.0 mg/kg/injection, schedule: Q01DX Z (oral), vehicle: saline 101 % of control

NCCC1=NCCN1
inactive: [8] 100 % of control | [9] 104 % of control | dose: 400.0 mg/kg/injection, schedule: Q04DX002 (ip), vehicle: Klucel (hydroxypropylcellulose) (HPC) 104 % of control

CCOC(=O)C1C(=O)CC(=O)C(C(=O)OCC)C1c1ccc(O)cc1 (stereo unspecified)
inactive: [1] 95 % of control | [5] 97 % of control | [2] 98 % of control | [6] 104 % of control | [3] 97 % of control | [7] 107 % of control

O=C(C(=C(c1ccccc1)c1ccccc1)N1CCCCC1)c1ccccc1
inactive: dose: 100.0 mg/kg/injection, schedule: Q01DX001 (ip), vehicle: saline 96 % of control | [1] 92 % of control | dose: 200.0 mg/kg/injection, schedule: Q01DX001 (ip), vehicle: saline 97 % of control | [2] 92 % of control | dose: 400.0 mg/kg/injection, schedule: Q01DX001 (ip), vehicle: saline 97 % of control | [3] 92 % of control

CC(C)OC(C(=O)O)c1ccccc1 (stereo unspecified)
inactive: [16] 101 % of control | [17] 101 % of control

Cc1ccc(S(=O)(=O)Nc2cccc(C(=O)O)c2)cc1
inactive: [10] 98 % of control | [13] 98 % of control | [11] 104 % of control | [14] 104 % of control | [12] 102 % of control | [15] 98 % of control

Reference: PubChem BioAssay AID248 (DTP/NCI, 2004)
